Source: ChEMBL document CHEMBL1201862, “PubChem BioAssay data set” (2004)
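Briefly, cells in 96-well plates were exposed to five compound concentrations for 48 h, and endpoints were estimated by linear interpolation. Here, GI50 denotes the concentration required for 50% inhibition of growth.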 The source made the active and inactive calls. No stated cut-off is given here; in the data, active = GI50 up to about 1.1 µM and inactive = higher.

How the values were obtained:
Assay in all cases: growth of human tumour cells (NCI), 48 h
SK-MEL-2 = test system: SK-MEL-2
SK-MEL-28 = test system: SK-MEL-28
SN12C = test system: SN12C
DU-145 = test system: DU-145
LOX IMVI = test system: LOX IMVI
ACHN = test system: ACHN
HOP-62 = test system: HOP-62
HCT-116 = test system: HCT-116
RPMI-8226 = test system: RPMI-8226
A498 = test system: A498
MDA-MB-435 = test system: MDA-MB-435
IGROV-1 = test system: IGROV-1
SW-620 = test system: SW-620
SF-268 = test system: SF-268
SF-539 = test system: SF-539
Malme-3M = test system: Malme-3M
EKVX = test system: EKVX
KM12 = test system: KM12
CCRF-CEM = test system: CCRF-CEM

Measured: GI50

Oc1[nH]c(Nc2ccc(Cl)cc2)nc2ncnc1-2
inactive: SK-MEL-2 > 100 µM | SK-MEL-28 > 100 µM | SN12C > 100 µM | DU-145 70.1 µM | LOX IMVI > 100 µM | ACHN 63.7 µM | HOP-62 > 100 µM | HCT-116 84.3 µM | RPMI-8226 > 100 µM | A498 > 100 µM | MDA-MB-435 > 100 µM | IGROV-1 > 100 µM | SW-620 > 100 µM | SF-268 55 µM | SF-539 > 100 µM | Malme-3M > 100 µM | EKVX > 100 µM | KM12 > 100 µM

CC(C)OC(=O)/C=C/C(=O)O/C=C/[N+](=O)[O-]
inactive: SK-MEL-2 20.2 µM | SK-MEL-28 26.7 µM | DU-145 30.4 µM | LOX IMVI 17.5 µM | ACHN > 100 µM | HOP-62 34 µM | HCT-116 17.7 µM | RPMI-8226 15.5 µM | A498 14.1 µM | MDA-MB-435 38.9 µM | IGROV-1 31.6 µM | SW-620 25.4 µM | SF-268 24.5 µM | SF-539 37.1 µM | Malme-3M 29.6 µM | EKVX 18.2 µM | KM12 21.5 µM

O=Cc1c(-c2ccccc2)nc2ccccc2c1O
inactive: SK-MEL-2 > 100 µM | SK-MEL-28 > 100 µM | SN12C 73.8 µM | DU-145 > 100 µM | LOX IMVI 42.2 µM | ACHN > 100 µM | HOP-62 92.7 µM | HCT-116 41.9 µM | RPMI-8226 34.7 µM | A498 81.8 µM | MDA-MB-435 21.3 µM | IGROV-1 53.8 µM | SW-620 50.6 µM | SF-268 59.3 µM | SF-539 45.6 µM | Malme-3M 54 µM | EKVX 85.1 µM | KM12 30.3 µM

CC(C)(C)OC(=O)n1cc(C2CN(O)C(=O)C23CCC(=O)N3Cc2ccccc2)c2ccccc21 (stereo unspecified)
inactive: SK-MEL-2 14.8 µM | SN12C 27 µM | CCRF-CEM 83.2 µM | DU-145 60.1 µM | LOX IMVI 21.2 µM | HOP-62 93.1 µM | HCT-116 66.2 µM | RPMI-8226 31.6 µM | A498 24.8 µM | MDA-MB-435 28.6 µM | IGROV-1 18.8 µM | SW-620 68.7 µM | SF-268 86.3 µM | SF-539 49 µM | Malme-3M > 100 µM | EKVX 21.9 µM | KM12 44.1 µM

O=c1cc(CC(O)(C(F)(F)Cl)C(F)(F)Cl)[nH]n1-c1ccccc1
inactive: SK-MEL-28 > 100 µM | SN12C > 100 µM | CCRF-CEM > 100 µM | DU-145 > 100 µM | LOX IMVI > 100 µM | ACHN > 100 µM | HOP-62 > 100 µM | HCT-116 > 100 µM | RPMI-8226 > 100 µM | A498 > 100 µM | MDA-MB-435 > 100 µM | IGROV-1 > 100 µM | SW-620 > 100 µM | SF-268 > 100 µM | SF-539 > 100 µM | Malme-3M > 100 µM | EKVX > 100 µM | KM12 > 100 µM

CC(C)[Si](OC1=C(C(=O)N(C)c2ccccc2Cl)CCC1)(C(C)C)C(C)C
inactive: SK-MEL-28 21.5 µM | SN12C 16.7 µM | DU-145 22 µM | LOX IMVI 19.2 µM | ACHN 19.9 µM | HOP-62 17.6 µM | HCT-116 19.5 µM | RPMI-8226 19.2 µM | A498 15.6 µM | MDA-MB-435 19 µM | IGROV-1 18.3 µM | SW-620 24 µM | SF-268 18.5 µM | SF-539 22.9 µM | Malme-3M 19.1 µM | EKVX 16.9 µM | KM12 20.6 µM

C=Cc1nc2nnc(CCCCCCCCc3nnc4nc(C=C)[nH]n34)n2[nH]1
inactive: SK-MEL-2 > 100 µM | SK-MEL-28 > 100 µM | SN12C > 100 µM | CCRF-CEM > 100 µM | DU-145 > 100 µM | LOX IMVI 93.5 µM | ACHN > 100 µM | HOP-62 > 100 µM | HCT-116 47.2 µM | A498 40.7 µM | MDA-MB-435 > 100 µM | IGROV-1 > 100 µM | SW-620 > 100 µM | SF-268 > 100 µM | SF-539 > 100 µM | Malme-3M 58.7 µM | EKVX 61.5 µM | KM12 > 100 µM

COC(=O)c1ccc2[nH]c3c(c2c1)CC(=O)Nc1ccccc1-3
inactive: SK-MEL-2 > 100 µM | SK-MEL-28 > 100 µM | SN12C > 100 µM | DU-145 45.7 µM | LOX IMVI > 100 µM | ACHN > 100 µM | HOP-62 24.3 µM | HCT-116 > 100 µM | RPMI-8226 > 100 µM | A498 > 100 µM | MDA-MB-435 > 100 µM | IGROV-1 44.2 µM | SW-620 > 100 µM | SF-268 9.18 µM | SF-539 2.94 µM | Malme-3M > 100 µM | EKVX 26.2 µM | KM12 > 100 µM
